Bounds are passed on as bounds.

Results on 14 compounds are retold here after US20260274794A1, “COMPOUNDS, COMPOSITIONS, AND METHOD OF INHIBITING TAU PROTEIN AND ALPHASYNUCLEIN AGGREGATION” (Purdue Research Foundation, priority 2023, published 2026).

Holding throughout (assay type): biochemical
In one test the target is T1, α-synuclein (α-syn) (Homo sapiens, UniProt P37840).
T1 construct: purchased rPeptide, LLC (Watkinsville, GA)
Kind of test: Thioflavin T (ThT) fluorescence assay of α-syn fibril formation. Conditions: compound 100 μM; ThT fluorescence intensity at plateau phase, control = 100%. The protocol:
(§1) ThT fluorescence is routinely established assay to follow the kinetics of α-syn fibril formation with different drug candidate treatments. Compounds were first tested at a final of concentration of 100 μM and α-syn and 2N4R tau were prepared at 2 μM and 6 μM, respectively. Compounds with highest anti-fibrillary activity were tested at 3.125, 6.25, 12.5, 25, 50, and 100 μM to obtain dose-response curves.
For the α-syn ThT assay, ThT was used at a final concentration of 20 μM. α-Syn was dissolved in 20 mM Tris-HCl (pH 7.4) supplemented with 100 mM NaCl to a stock solution of 280 μM (1 mg/250 μL) prior to resuspension in ThT buffer to obtain a final concentration of 2 μM. Compounds and ThT were first added to the wells. The kinetics of fibril formation begin when the α-syn was solubilized in the ThT buffer (10 mM PBS buffer (pH 7.4), supplemented with 0.5 mM SDS and 300 mM NaCl) and added to a non-treated black 96 well microplate with a transparent flat bottom. Each well was filled with a maximum volume of 150 μL buffer with one 3 mm borosilicate bead. The background fluorescence signal consisted of ThT in buffer and 0.25% DMSO without α-syn. The excitation and emission wavelengths were set at 440 and 485 nm, respectively, with a Synergy HT multi-mode microplate reader (BioTek, Winooski, VT). Measurements were taken at 37° C. every 20 minutes over 50 hours of shaking prior to reading the plate. Samples were measured in three replicates and the experiments were repeated three times using different α-syn stock solutions. For each time point, the background fluorescence signal was subtracted. Arbitrary units of fluorescence were calculated from the mean values normalized against the maximum value in each completed assay. Arbitrarily, the maximum value (100%) for the fluorescence intensity was established for α-syn.
Compounds were tested at 100 μM with α-syn at 6 μM, resulting in a molar ratio of approximately 1:16 (protein:compound). The plateau phase of sigmoidal kinetics is of particular interest because it is the phase in which mature fibrils form and where aggregation and disaggregation are at equilibrium with each other; therefore, the fluorescence intensity between multiple compounds at the plateau phase can be compared to identify the compounds with the most promising anti-aggregation activity (Table 1, column α-syn ThT %). […] Compound 17 was the best representative of the 5-aminoindole series and moved to the tier-2 assays, even though the resulting ThT percentage of fluorescence intensity was 10% higher than the cut off. These compounds were then tested on tau 2N4R ThT fluorescence assays.

In test [1] the target is T2, tau isoform 2N4R (Homo sapiens, UniProt P10636).
T2 construct: made in house; host or cells: E. coli BL21 (DE3), vector pRK172
T2 sequence (P10636 1-441 isoform P10636-8): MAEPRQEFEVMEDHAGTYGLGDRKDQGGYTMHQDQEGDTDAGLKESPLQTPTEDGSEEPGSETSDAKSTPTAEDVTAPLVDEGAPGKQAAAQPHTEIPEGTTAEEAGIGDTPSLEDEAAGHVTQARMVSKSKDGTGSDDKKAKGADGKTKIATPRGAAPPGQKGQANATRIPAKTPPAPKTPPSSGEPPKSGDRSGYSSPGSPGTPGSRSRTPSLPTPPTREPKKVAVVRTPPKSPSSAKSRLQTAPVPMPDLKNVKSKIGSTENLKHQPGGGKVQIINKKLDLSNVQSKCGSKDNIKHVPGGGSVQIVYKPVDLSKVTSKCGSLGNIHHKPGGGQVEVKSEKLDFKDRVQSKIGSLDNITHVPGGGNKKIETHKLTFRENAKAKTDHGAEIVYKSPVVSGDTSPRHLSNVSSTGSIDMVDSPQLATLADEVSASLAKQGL
The test is described as follows: ThT fluorescence assay of tau isoform 2N4R fibril formation. Conditions: compound 100 μM, tau 2N4R 6 μM. The protocol: as §1
Concerning the non-phosphorylated tau (isoform 2N4R) kinetics of fibril formation, ThT was performed with the tau protein solution was diluted to a final concentration of 6 μM in PBS (pH 7.4) supplemented with 1.5 μM heparin, 20 μM ThT, 2.5 mM DTT, and 100 μM compound. Aliquots of the diluted protein solution (100 μL each) were pipetted into the wells of a 96-well plate, and a Teflon ball was added to each well. The plate was incubated at 37° C. with constant shaking at 1,000 rpm in a Tecan Stark plate reader. ThT fluorescence was measured every 15 min with excitation and emission wavelengths of 440 nm and 480 nm, and the data were plotted using GraphPad Prism.
Various structural analogs were first tested at a final concentration of 100 μM in the presence of tau 2N4R at 6 μM. Compounds 2, 4-8, and 17 were pre-selected with α-syn ThT assay prior to evaluation on the tau isoform 2N4R.

Test [2] concerns the target T2, tau isoform 2N4R. The test is described as follows: PICUP assay of tau isoform 2N4R oligomerization. Conditions: compound 50 μM. The protocol:
To force the oligomerization by cross-linking, α-syn (from Rpeptide, LLC) and tau isoform 2N4R were diluted in 10 mM phosphate buffer (pH 7.4) to reach a final concentration of 10 μM [27]. Different compounds were added to the protein solution at a final concentration of 50 μM, resulting in a molar ratio of 1:5. To confirm the gradual effect of the compounds on the inhibition of α-syn oligomerization, compounds were tested at final concentration of 3.125, 6.25, 12.5, 25, and 50 μM. The controls consisted of samples without light exposition, without Ru(bpy), and without compound (i.e., 0.125% DMSO). The cross-linking reaction was initiated by the addition of 2 μL of Ru(bpy) (300 μM final concentration) and 2 μL ammonium persulfate (6 mM final concentration). Samples were irradiated immediately. Light exposition was of 1 second duration for ca-syn and 3 second duration for tau isoform 2N4R, with a 53 W (120 V) incandescent lamp installed in a homemade dark-box. Each tube contained a final volume of 20 μL. After irradiation, 8.3 μL. of Lammeli loading buffer containing 15% β-mercaptoethanol was immediately added to the solution, followed by incubation at 95° C. for 10 minutes. The cross-linked samples were separated on a 16% SDS-Page gel and visualized by Coomassie blue staining.
One end point used to verify the propensity of misfolded protein in the drug discovery field is the inhibition of oligomer formation. The photo-induced cross-linking of unmodified proteins (PICUP) assay was used to investigate α-syn (60 μM) and tau isoform 2N4R (6 μM) oligomerization in the presence of eight amide compounds (2, 4, 5, 6, 7, 8, 13, and 17 at 50 μM, i.e., ~molar ratio 1:8 for tau). After being subjected to short light exposure, α-syn and tau were cross-linked and Coomassie-stained resolved as a higher molecular weight compared to control (0.125% DMSO). […] Compound 13 was used as a negative control for the α-syn PICUP.
PICUP assays were performed with different concentrations (50 μM, 25 μM, 12.5 μM, 6.25 μM, 3.125 μM; control=0.125% DMSO) for each lead compound.

With `O=C(Nc1cccc2[nH]ccc12)c1cccs1` [Compound 1], the remaining activity (commonly the signal under treatment as a percentage of the control signal) at 100 µM at α-synuclein (α-syn) worked out at 64%.

Turning to `COc1cccc(C(=O)Nc2cccc3[nH]ccc23)c1` [Compound 3], the remaining activity at 100 µM at α-synuclein (α-syn) came out at 43%.

As for `O=C(Nc1cccc2[nH]ccc12)c1ccc(Cl)cc1` [Compound 4, 4-chloro-N-(1H-indol-4-yl)benzamide], at α-synuclein (α-syn), the remaining activity at 100 µM was not above 30%. Moreover, the “effect on tau isoform 2N4R fibril formation (ThT)” value (“effect” below) on tau isoform 2N4R [1] was “good inhibitory effect”.

Consider `O=C(Nc1cccc2[nH]ccc12)c1ccccc1Cl` [Compound 5, 2-chloro-N-(1H-indol-4-yl)benzamide], for which, on α-synuclein (α-syn), the remaining activity at 100 µM was not above 30%. Moreover, at tau isoform 2N4R [1], the “effect” value is reported as “good inhibitory effect”.

In the case of `O=C(Nc1cccc2[nH]ccc12)c1ccc(C(F)(F)F)cc1` [Compound 6, N-(1H-indol-4-yl)-4-(rifluoromethyl)benzamide], at α-synuclein (α-syn), the remaining activity at 100 µM was not above 30%. For the same compound, the “effect” value on tau isoform 2N4R [1] is listed as “weaker anti-fibrilization effect”. In addition, the “tau isoform 2N4R oligomerization (PICUP crosslinking)” value at tau isoform 2N4R [2] was “strongest oligomer band”.

Turning to `N#Cc1ccc(C(=O)Nc2cccc3[nH]ccc23)cc1` [Compound 7, 4-cyano-N-(1H-indol-4-yl)benzamide], the remaining activity at 100 µM at α-synuclein (α-syn) was not above 30%. Further, at tau isoform 2N4R [1], the “effect” value was “good inhibitory effect”.

In the case of `O=C(Nc1ccc2[nH]ccc2c1)c1cccs1` [Compound 9, N-(1H-indol-5-yl)thiophene-2-carboxamide], the remaining activity at 100 µM at α-synuclein (α-syn) amounted to 40.5 ± 2.3%.

In the case of `O=C(Nc1ccc2[nH]ccc2c1)c1ccccc1` [Compound 10, N-(1H-indol-5-yl)benzamide], at α-synuclein (α-syn), the remaining activity at 100 µM was 102 ± 13.3%.

For `COc1cccc(C(=O)Nc2ccc3[nH]ccc3c2)c1` [Compound 11, N-(1H-indol-5-yl)-3-methoxybenzamide], on α-synuclein (α-syn), the remaining activity at 100 µM worked out at 48.6 ± 2.6%.

For the compound `O=C(Nc1ccc2[nH]ccc2c1)c1ccc(Cl)cc1` [Compound 12, 4-chloro-N-(1H-indol-5-yl)benzamide], the remaining activity at 100 µM at α-synuclein (α-syn) came to 67.5 ± 16.3%.

Consider `N#Cc1ccc(C(=O)Nc2ccc3[nH]ccc3c2)cc1` [Compound 15, 4-cyano-N-(1H-indol-5-yl)benzamide], for which, on α-synuclein (α-syn), the remaining activity at 100 µM was determined as 62.7 ± 4.1%.

With `O=C(Nc1ccc2[nH]ccc2c1)c1ccc(F)cc1` [Compound 16, 4-fluoro-N-(1H-indol-5-yl)benzamide], on α-synuclein (α-syn), the remaining activity at 100 µM stood at 48.5 ± 1.7%.

Consider `Nc1cccc(C(=O)Nc2ccc3[nH]ccc3c2)c1` [Compound 17, 3-amino-(1H-indol-5-yl)benzamide], for which, on α-synuclein (α-syn), the remaining activity at 100 µM was 40%.

For the compound `O=C(Nc1ccc2c(c1)Cc1ccccc1-2)c1ccc(Cl)cc1` [Compound 18, 4-chloro-N-(9H-fluoren-2-yl)benzamide], at α-synuclein (α-syn), the remaining activity at 100 µM was 69.4% and the “α-Syn ThT%” value worked out at 69.4 ± 6.70%.
